Experimental data taken from the supplement of paper PMC12463676, “Small-molecule dissolution of stress granules by redox modulation benefits ALS models” (Nature Chemical Biology, 2025).

Columns and labels:
lipoamide = compound: NC(=O)CCCCC1CCSS1 [lipoamide]; assay: thermal stability z-score vs DMSO; higher = more thermally stabilized by treatment; details: HeLa, lipoamide concentration 100 µM
Experimental: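 Cellular thermal proteome profiling in HeLa cells. Cells were treated with 100 µM lipoamide for 1 h, with or without 1 mM arsenate for a further 1 h, then heated to ten temperatures (37-66.3 °C), and soluble protein was quantified by TMT mass spectrometry relative to 0.1% DMSO controls. The thermal stability score (sum of log2 fold changes minus the abundance score) was transformed to a z-score; mean of n = 3 experiments.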

potassium arsenate = compound: O=[As]([O-])(O)O.[K+] [potassium arsenate]; assay: as above; details: HeLa; arsenate concentration 1 mM
Experimental: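 Cellular thermal proteome profiling in HeLa cells treated with 1 mM arsenate for 1 h (DMSO pretreatment), heated to ten temperatures (37-66.3 °C). Soluble protein was quantified by TMT mass spectrometry relative to DMSO controls; the thermal stability score was transformed to a z-score; mean of n = 3 experiments.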

[1] = arsenate co-treatment: 1 mM arsenate 1 h
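Further: each temperature applied for 3 min, abundance score taken as mean log2 fold change at the two lowest temperatures, z-score obtained by mean subtraction and division by SD.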

Sequence of UniProt Q9Y3B8 (Q9Y3B8 whole entry): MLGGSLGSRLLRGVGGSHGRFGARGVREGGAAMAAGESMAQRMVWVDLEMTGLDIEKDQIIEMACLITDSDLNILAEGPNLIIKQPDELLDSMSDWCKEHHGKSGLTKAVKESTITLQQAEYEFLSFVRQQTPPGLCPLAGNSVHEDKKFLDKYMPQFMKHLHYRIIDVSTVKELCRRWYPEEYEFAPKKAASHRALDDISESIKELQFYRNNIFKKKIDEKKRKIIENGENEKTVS
Sequence of UniProt Q8NFH8 (Q8NFH8 whole entry): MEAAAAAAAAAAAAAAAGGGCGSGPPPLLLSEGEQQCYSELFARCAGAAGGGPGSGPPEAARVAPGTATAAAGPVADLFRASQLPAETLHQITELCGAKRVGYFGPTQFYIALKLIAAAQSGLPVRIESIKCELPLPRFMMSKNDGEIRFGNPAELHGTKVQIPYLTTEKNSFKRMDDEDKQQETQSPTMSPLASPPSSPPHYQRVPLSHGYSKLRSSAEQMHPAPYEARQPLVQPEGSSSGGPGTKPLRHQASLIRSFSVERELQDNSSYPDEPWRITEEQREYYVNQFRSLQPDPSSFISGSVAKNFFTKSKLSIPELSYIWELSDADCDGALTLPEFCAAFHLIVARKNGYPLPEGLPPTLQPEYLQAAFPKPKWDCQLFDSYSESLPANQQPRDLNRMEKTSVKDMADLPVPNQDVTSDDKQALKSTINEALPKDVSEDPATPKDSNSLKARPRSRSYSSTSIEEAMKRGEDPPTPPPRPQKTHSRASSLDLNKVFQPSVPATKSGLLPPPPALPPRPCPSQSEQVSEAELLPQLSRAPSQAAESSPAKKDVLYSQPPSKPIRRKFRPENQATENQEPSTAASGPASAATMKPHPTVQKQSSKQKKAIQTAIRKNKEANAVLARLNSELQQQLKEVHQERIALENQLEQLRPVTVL
Sequence of UniProt Q9H1K0 (Q9H1K0 whole entry): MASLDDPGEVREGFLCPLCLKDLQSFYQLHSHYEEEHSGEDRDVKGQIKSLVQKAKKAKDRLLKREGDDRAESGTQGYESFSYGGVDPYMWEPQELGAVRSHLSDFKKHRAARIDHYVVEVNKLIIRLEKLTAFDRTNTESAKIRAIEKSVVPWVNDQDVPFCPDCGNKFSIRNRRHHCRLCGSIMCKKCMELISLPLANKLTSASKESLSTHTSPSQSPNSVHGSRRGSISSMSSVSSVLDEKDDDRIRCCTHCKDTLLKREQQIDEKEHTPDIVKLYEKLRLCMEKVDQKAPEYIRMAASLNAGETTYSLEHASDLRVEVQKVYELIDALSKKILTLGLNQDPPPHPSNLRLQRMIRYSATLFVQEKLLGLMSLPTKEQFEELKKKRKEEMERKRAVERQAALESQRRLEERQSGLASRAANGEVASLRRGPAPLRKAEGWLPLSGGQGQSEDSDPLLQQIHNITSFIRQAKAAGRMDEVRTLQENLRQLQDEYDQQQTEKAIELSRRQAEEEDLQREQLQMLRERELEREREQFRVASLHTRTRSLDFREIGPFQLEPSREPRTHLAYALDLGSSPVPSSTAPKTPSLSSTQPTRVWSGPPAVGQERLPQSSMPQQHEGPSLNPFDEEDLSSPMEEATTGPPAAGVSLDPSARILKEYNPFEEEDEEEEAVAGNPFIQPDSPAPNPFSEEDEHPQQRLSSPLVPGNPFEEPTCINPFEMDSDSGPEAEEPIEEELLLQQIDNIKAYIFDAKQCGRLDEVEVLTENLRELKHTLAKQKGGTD
Sequence of UniProt Q9P2R6 (Q9P2R6 whole entry): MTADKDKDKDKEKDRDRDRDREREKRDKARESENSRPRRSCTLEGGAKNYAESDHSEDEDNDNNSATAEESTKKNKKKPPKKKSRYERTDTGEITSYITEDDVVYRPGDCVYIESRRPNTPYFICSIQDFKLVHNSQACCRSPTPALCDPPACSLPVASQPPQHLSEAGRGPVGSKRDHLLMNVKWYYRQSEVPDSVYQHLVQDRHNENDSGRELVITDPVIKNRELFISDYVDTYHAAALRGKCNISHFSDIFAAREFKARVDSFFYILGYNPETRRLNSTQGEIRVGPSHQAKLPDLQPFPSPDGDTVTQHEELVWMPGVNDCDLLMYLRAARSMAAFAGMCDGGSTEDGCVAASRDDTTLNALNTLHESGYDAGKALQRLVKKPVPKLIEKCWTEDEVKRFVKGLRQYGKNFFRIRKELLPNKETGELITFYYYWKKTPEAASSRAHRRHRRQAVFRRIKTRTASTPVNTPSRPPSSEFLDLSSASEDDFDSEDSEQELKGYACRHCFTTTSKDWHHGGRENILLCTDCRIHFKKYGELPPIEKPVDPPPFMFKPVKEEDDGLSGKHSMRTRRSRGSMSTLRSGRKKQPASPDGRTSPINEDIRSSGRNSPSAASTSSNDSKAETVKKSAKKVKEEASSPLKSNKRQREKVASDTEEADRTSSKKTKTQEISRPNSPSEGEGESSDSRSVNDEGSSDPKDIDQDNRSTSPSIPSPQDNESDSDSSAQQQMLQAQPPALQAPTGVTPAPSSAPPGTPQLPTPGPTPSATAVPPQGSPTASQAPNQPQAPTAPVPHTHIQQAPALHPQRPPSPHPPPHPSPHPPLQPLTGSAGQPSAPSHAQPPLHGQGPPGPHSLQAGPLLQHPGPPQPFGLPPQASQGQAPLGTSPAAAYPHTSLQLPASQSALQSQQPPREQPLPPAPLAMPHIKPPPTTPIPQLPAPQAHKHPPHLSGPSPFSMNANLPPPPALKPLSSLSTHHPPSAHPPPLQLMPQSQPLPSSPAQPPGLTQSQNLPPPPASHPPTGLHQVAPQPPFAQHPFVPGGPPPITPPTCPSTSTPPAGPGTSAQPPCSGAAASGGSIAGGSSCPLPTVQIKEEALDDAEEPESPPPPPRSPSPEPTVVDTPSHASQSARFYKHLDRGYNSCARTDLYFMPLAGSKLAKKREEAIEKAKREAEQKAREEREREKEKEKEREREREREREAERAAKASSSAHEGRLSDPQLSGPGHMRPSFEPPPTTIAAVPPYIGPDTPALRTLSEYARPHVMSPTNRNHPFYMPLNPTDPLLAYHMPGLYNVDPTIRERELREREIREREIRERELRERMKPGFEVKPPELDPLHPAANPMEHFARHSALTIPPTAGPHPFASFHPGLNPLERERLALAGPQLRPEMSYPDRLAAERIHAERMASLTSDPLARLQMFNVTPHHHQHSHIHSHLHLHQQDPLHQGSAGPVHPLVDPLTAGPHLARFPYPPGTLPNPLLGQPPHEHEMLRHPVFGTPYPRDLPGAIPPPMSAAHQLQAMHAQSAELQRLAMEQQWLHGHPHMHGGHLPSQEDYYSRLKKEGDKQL
Sequence of UniProt A6NED2 (A6NED2 whole entry): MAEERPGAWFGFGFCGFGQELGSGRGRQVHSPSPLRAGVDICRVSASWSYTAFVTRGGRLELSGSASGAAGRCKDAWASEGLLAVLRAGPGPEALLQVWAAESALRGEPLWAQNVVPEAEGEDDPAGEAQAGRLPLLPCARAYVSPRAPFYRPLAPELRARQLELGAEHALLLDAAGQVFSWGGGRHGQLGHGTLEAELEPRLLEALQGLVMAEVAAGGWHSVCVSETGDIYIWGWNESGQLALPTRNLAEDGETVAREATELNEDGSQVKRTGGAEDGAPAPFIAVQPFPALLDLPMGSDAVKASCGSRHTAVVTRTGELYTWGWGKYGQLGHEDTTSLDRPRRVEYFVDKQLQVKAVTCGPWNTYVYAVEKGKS
Sequence of UniProt Q96HR9 (Q96HR9 whole entry): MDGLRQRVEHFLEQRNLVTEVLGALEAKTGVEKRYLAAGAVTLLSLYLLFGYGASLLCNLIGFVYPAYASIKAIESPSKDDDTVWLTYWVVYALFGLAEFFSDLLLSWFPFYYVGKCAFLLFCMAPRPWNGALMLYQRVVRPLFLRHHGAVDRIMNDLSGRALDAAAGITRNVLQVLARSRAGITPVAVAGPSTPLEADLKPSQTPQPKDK
Sequence of UniProt Q15293 (Q15293 whole entry): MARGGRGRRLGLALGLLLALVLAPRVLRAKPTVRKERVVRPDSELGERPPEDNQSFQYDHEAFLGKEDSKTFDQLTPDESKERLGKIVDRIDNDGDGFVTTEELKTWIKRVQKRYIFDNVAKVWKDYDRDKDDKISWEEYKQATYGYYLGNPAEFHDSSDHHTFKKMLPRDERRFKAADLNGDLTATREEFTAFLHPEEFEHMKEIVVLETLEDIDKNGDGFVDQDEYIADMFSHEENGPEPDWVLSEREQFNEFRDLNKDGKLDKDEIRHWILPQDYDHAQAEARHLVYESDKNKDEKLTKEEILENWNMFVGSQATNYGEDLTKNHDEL
Sequence of UniProt Q8IZV5 (Q8IZV5 whole entry): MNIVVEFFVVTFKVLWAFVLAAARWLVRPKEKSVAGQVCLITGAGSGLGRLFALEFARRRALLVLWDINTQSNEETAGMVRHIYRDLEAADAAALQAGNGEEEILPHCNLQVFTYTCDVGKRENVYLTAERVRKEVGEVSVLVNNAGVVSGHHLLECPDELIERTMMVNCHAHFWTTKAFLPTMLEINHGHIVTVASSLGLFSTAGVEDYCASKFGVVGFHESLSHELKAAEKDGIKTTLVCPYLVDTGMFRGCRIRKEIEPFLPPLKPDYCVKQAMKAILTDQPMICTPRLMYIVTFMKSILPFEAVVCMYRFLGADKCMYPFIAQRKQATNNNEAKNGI
Sequence of UniProt Q8TC12 (Q8TC12 whole entry): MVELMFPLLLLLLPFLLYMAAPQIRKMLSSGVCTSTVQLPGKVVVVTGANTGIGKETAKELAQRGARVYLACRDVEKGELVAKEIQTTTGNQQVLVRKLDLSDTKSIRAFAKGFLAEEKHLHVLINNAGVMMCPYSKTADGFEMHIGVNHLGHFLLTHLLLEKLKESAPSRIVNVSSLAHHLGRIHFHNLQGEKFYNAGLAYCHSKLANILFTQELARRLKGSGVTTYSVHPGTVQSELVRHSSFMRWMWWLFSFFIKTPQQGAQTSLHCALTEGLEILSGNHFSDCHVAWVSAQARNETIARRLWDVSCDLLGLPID
Sequence of UniProt P62877 (P62877 whole entry, looked up): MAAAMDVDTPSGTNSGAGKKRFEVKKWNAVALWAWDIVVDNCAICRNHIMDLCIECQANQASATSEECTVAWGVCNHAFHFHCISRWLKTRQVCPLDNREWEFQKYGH

Q: How did the thermal stability z-score (lipoamide; [1]) turn out when RBPJ (UniProt Q06330) was run?
A: 0.252

Q: What about the thermal stability z-score (lipoamide; arsenate co-treatment: none) of the same target?
A: -0.0841

Q: What about the thermal stability z-score (potassium arsenate) of the same target?
A: -0.676

Q: Which results are given for RBSN (UniProt Q9H1K0)?
A: thermal stability z-score (lipoamide; [1]): 0.0643; thermal stability z-score (lipoamide; arsenate co-treatment: none): 0.16; thermal stability z-score (potassium arsenate): -0.113

Q: How did the thermal stability z-score (lipoamide; [1]) turn out when RBX1 (UniProt P62877) was run?
A: -0.311

Q: What about the thermal stability z-score (lipoamide; arsenate co-treatment: none) of the same target?
A: 0.0681

Q: What about the thermal stability z-score (potassium arsenate) of the same target?
A: 0.163

Q: How did the thermal stability z-score (lipoamide; [1]) turn out when RC3H1 (UniProt Q5TC82) was run?
A: -0.195

Q: And the thermal stability z-score (lipoamide; arsenate co-treatment: none)?
A: -0.0428

Q: And the thermal stability z-score (potassium arsenate)?
A: -0.351

Q: For RCC1 (UniProt P18754), which thermal stability z-score (lipoamide; [1]) is on record?
A: -0.231

Q: What about the thermal stability z-score (lipoamide; arsenate co-treatment: none) of the same target?
A: -0.0308

Q: And the thermal stability z-score (potassium arsenate)?
A: -0.548

Q: Which thermal stability z-score (lipoamide; [1]) does the source give for RCC2 (UniProt Q9P258) here?
A: -0.997

Q: What about the thermal stability z-score (lipoamide; arsenate co-treatment: none) of the same target?
A: -0.671

Q: What about the thermal stability z-score (potassium arsenate) of the same target?
A: -0.0515

Q: RCCD1 (UniProt A6NED2) was tested. Which thermal stability z-score (lipoamide; [1]) did it give?
A: 0.452

Q: And the thermal stability z-score (lipoamide; arsenate co-treatment: none)?
A: 0.179

Q: And the thermal stability z-score (potassium arsenate)?
A: -0.297

Q: RCHY1 (UniProt Q96PM5) was tested. Which thermal stability z-score (lipoamide; [1]) did it give?
A: -0.131

Q: What about the thermal stability z-score (lipoamide; arsenate co-treatment: none) of the same target?
A: -0.0834

Q: What about the thermal stability z-score (potassium arsenate) of the same target?
A: -0.571

Q: Which results are given for RCL1 (UniProt Q9Y2P8)?
A: thermal stability z-score (lipoamide; [1]): 1.4; thermal stability z-score (lipoamide; arsenate co-treatment: none): 0.192; thermal stability z-score (potassium arsenate): 2.29

Q: Which results are given for RCN1 (UniProt Q15293)?
A: thermal stability z-score (lipoamide; [1]): -1.02; thermal stability z-score (lipoamide; arsenate co-treatment: none): -0.814; thermal stability z-score (potassium arsenate): 0.52

Q: For RCN2 (UniProt Q14257), which thermal stability z-score (lipoamide; [1]) is on record?
A: -3.71

Q: And the thermal stability z-score (lipoamide; arsenate co-treatment: none)?
A: -2.81

Q: What about the thermal stability z-score (potassium arsenate) of the same target?
A: 0.788

Q: How did the thermal stability z-score (lipoamide; [1]) turn out when RCN3 (UniProt Q96D15) was run?
A: -0.715

Q: What about the thermal stability z-score (lipoamide; arsenate co-treatment: none) of the same target?
A: -0.986

Q: What about the thermal stability z-score (potassium arsenate) of the same target?
A: -0.0957

Q: How did the thermal stability z-score (lipoamide; [1]) turn out when RCOR1 (UniProt Q9UKL0) was run?
A: 1.01

Q: What about the thermal stability z-score (lipoamide; arsenate co-treatment: none) of the same target?
A: 0.999

Q: What about the thermal stability z-score (potassium arsenate) of the same target?
A: -0.739

Q: Which thermal stability z-score (lipoamide; [1]) does the source give for RCOR3 (UniProt Q9P2K3) here?
A: 0.0711

Q: And the thermal stability z-score (lipoamide; arsenate co-treatment: none)?
A: 0.0826

Q: What about the thermal stability z-score (potassium arsenate) of the same target?
A: 0.119

Q: How did the thermal stability z-score (lipoamide; [1]) turn out when RDH10 (UniProt Q8IZV5) was run?
A: 0.347

Q: What about the thermal stability z-score (lipoamide; arsenate co-treatment: none) of the same target?
A: 0.244

Q: And the thermal stability z-score (potassium arsenate)?
A: 0.115

Q: For RDH11 (UniProt Q8TC12), which thermal stability z-score (lipoamide; [1]) is on record?
A: -0.514

Q: And the thermal stability z-score (lipoamide; arsenate co-treatment: none)?
A: 0.808

Q: What about the thermal stability z-score (potassium arsenate) of the same target?
A: 0.385

Q: For RDH13 (UniProt Q8NBN7), which thermal stability z-score (lipoamide; [1]) is on record?
A: -0.0891

Q: And the thermal stability z-score (lipoamide; arsenate co-treatment: none)?
A: -0.278

Q: What about the thermal stability z-score (potassium arsenate) of the same target?
A: 0.307

Q: With RDH14 (UniProt Q9HBH5) as the target, how does the thermal stability z-score (lipoamide; [1]) read?
A: 1.25

Q: What about the thermal stability z-score (lipoamide; arsenate co-treatment: none) of the same target?
A: 0.852

Q: What about the thermal stability z-score (potassium arsenate) of the same target?
A: 1.53

Q: RDX (UniProt P35241) was tested. Which thermal stability z-score (lipoamide; [1]) did it give?
A: 0.749

Q: What about the thermal stability z-score (lipoamide; arsenate co-treatment: none) of the same target?
A: 0.45

Q: And the thermal stability z-score (potassium arsenate)?
A: 0.883

Q: RECQL5 (UniProt O94762) was tested. Which thermal stability z-score (lipoamide; [1]) did it give?
A: -0.0312

Q: What about the thermal stability z-score (lipoamide; arsenate co-treatment: none) of the same target?
A: 0.0721

Q: What about the thermal stability z-score (potassium arsenate) of the same target?
A: -0.222

Q: For RECQL (UniProt P46063), which thermal stability z-score (lipoamide; [1]) is on record?
A: 1.17

Q: What about the thermal stability z-score (lipoamide; arsenate co-treatment: none) of the same target?
A: 0.899

Q: And the thermal stability z-score (potassium arsenate)?
A: -1.22

Q: What does the source list for REEP3 (UniProt Q6NUK4)?
A: thermal stability z-score (lipoamide; [1]): 0.197; thermal stability z-score (lipoamide; arsenate co-treatment: none): -0.171; thermal stability z-score (potassium arsenate): -0.0274

Q: REEP4 (UniProt Q9H6H4) was tested. Which thermal stability z-score (lipoamide; [1]) did it give?
A: -0.55

Q: What about the thermal stability z-score (lipoamide; arsenate co-treatment: none) of the same target?
A: -0.227

Q: What about the thermal stability z-score (potassium arsenate) of the same target?
A: 0.579

Q: Which thermal stability z-score (lipoamide; [1]) does the source give for REEP5 (UniProt Q00765) here?
A: 0.359

Q: What about the thermal stability z-score (lipoamide; arsenate co-treatment: none) of the same target?
A: 1

Q: And the thermal stability z-score (potassium arsenate)?
A: 0.354

Q: For REEP6 (UniProt Q96HR9), which thermal stability z-score (lipoamide; [1]) is on record?
A: 0.703

Q: And the thermal stability z-score (lipoamide; arsenate co-treatment: none)?
A: 0.825

Q: And the thermal stability z-score (potassium arsenate)?
A: 0.0059

Q: Which results are given for REL (UniProt Q04864)?
A: thermal stability z-score (lipoamide; [1]): -0.801; thermal stability z-score (lipoamide; arsenate co-treatment: none): 0.147; thermal stability z-score (potassium arsenate): 0.22

Q: What does the source list for RELA (UniProt Q04206)?
A: thermal stability z-score (lipoamide; [1]): 0.384; thermal stability z-score (lipoamide; arsenate co-treatment: none): 0.867; thermal stability z-score (potassium arsenate): 0.374

Q: With RELB (UniProt Q01201) as the target, how does the thermal stability z-score (lipoamide; [1]) read?
A: -0.128

Q: What about the thermal stability z-score (lipoamide; arsenate co-treatment: none) of the same target?
A: -0.07

Q: And the thermal stability z-score (potassium arsenate)?
A: 0.048

Q: How did the thermal stability z-score (lipoamide; [1]) turn out when REPIN1 (UniProt Q9BWE0) was run?
A: -0.686

Q: And the thermal stability z-score (lipoamide; arsenate co-treatment: none)?
A: -0.309

Q: And the thermal stability z-score (potassium arsenate)?
A: 0.53

Q: With REPS1 (UniProt Q96D71) as the target, how does the thermal stability z-score (lipoamide; [1]) read?
A: -0.864

Q: And the thermal stability z-score (lipoamide; arsenate co-treatment: none)?
A: -0.26

Q: What about the thermal stability z-score (potassium arsenate) of the same target?
A: 0.157

Q: Which thermal stability z-score (lipoamide; [1]) does the source give for REPS2 (UniProt Q8NFH8) here?
A: 0.13

Q: What about the thermal stability z-score (lipoamide; arsenate co-treatment: none) of the same target?
A: -0.0113

Q: What about the thermal stability z-score (potassium arsenate) of the same target?
A: -0.0535

Q: Which thermal stability z-score (lipoamide; [1]) does the source give for RER1 (UniProt O15258) here?
A: 0.802

Q: And the thermal stability z-score (lipoamide; arsenate co-treatment: none)?
A: 0.615

Q: And the thermal stability z-score (potassium arsenate)?
A: 0.934

Q: Which thermal stability z-score (lipoamide; [1]) does the source give for RERE (UniProt Q9P2R6) here?
A: 0.0956

Q: What about the thermal stability z-score (lipoamide; arsenate co-treatment: none) of the same target?
A: -0.103

Q: What about the thermal stability z-score (potassium arsenate) of the same target?
A: 0.00489

Q: How did the thermal stability z-score (lipoamide; [1]) turn out when RETSAT (UniProt Q6NUM9) was run?
A: 0.0873

Q: And the thermal stability z-score (lipoamide; arsenate co-treatment: none)?
A: 0.172

Q: What about the thermal stability z-score (potassium arsenate) of the same target?
A: -0.259

Q: Which thermal stability z-score (lipoamide; [1]) does the source give for REXO2 (UniProt Q9Y3B8) here?
A: 0.295

Q: What about the thermal stability z-score (lipoamide; arsenate co-treatment: none) of the same target?
A: 0.536

Q: And the thermal stability z-score (potassium arsenate)?
A: 0.192

Q: For REXO4 (UniProt Q9GZR2), which thermal stability z-score (lipoamide; [1]) is on record?
A: -0.103

Q: What about the thermal stability z-score (lipoamide; arsenate co-treatment: none) of the same target?
A: -0.118

Q: And the thermal stability z-score (potassium arsenate)?
A: -0.149
